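In this assay, cells in 96-well plates receive the compound at five concentrations for 48 hours. Endpoints are linearly interpolated between the surrounding concentrations. Definition used: TGI = concentration required for complete inhibition of growth.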
Legend:
Test in all cases: NCI tumour cell line growth inhibition, 48 h
786-0 renal = tested on: 786-0 renal
A498 renal = tested on: A498 renal
A549 NSCLC = tested on: A549 NSCLC
ACHN renal = tested on: ACHN renal
CAKI-1 renal = tested on: CAKI-1 renal
CCRF-CEM leukemia = tested on: CCRF-CEM leukemia
COLO 205 colon = tested on: COLO 205 colon
DLD-1 colon = tested on: DLD-1 colon
DMS 114 small cell lung = tested on: DMS 114 small cell lung
DMS 273 small cell lung = tested on: DMS 273 small cell lung
EKVX NSCLC = tested on: EKVX NSCLC
HCC-2998 colon = tested on: HCC-2998 colon
HCT-116 colon = tested on: HCT-116 colon
HCT-15 colon = tested on: HCT-15 colon
HL-60(TB) leukemia = tested on: HL-60(TB) leukemia
HOP-18 NSCLC = tested on: HOP-18 NSCLC
HOP-62 NSCLC = tested on: HOP-62 NSCLC
HOP-92 NSCLC = tested on: HOP-92 NSCLC
HT29 colon = tested on: HT29 colon
IGROV1 ovarian = tested on: IGROV1 ovarian
K-562 leukemia = tested on: K-562 leukemia
KM12 colon = tested on: KM12 colon
KM20L2 colon = tested on: KM20L2 colon
LOX IMVI melanoma = tested on: LOX IMVI melanoma
M14 melanoma = tested on: M14 melanoma
M19-MEL melanoma = tested on: M19-MEL melanoma
MALME-3M melanoma = tested on: MALME-3M melanoma
MOLT-4 leukemia = tested on: MOLT-4 leukemia
NCI-H226 lung = tested on: NCI-H226 lung
NCI-H23 lung = tested on: NCI-H23 lung
NCI-H460 lung = tested on: NCI-H460 lung
OVCAR-3 ovarian = tested on: OVCAR-3 ovarian
OVCAR-4 ovarian = tested on: OVCAR-4 ovarian
OVCAR-5 ovarian = tested on: OVCAR-5 ovarian
OVCAR-8 ovarian = tested on: OVCAR-8 ovarian
RPMI-8226 leukemia = tested on: RPMI-8226 leukemia
SF-268 CNS = tested on: SF-268 CNS
SF-295 CNS = tested on: SF-295 CNS
SF-539 CNS = tested on: SF-539 CNS
SK-MEL-2 melanoma = tested on: SK-MEL-2 melanoma
SK-MEL-28 melanoma = tested on: SK-MEL-28 melanoma
SK-MEL-5 melanoma = tested on: SK-MEL-5 melanoma
SK-OV-3 ovarian = tested on: SK-OV-3 ovarian
SNB-19 CNS = tested on: SNB-19 CNS
SNB-75 CNS = tested on: SNB-75 CNS
SNB-78 CNS = tested on: SNB-78 CNS
SW-620 colon = tested on: SW-620 colon
TK-10 renal = tested on: TK-10 renal
U251 CNS = tested on: U251 CNS
UACC-257 melanoma = tested on: UACC-257 melanoma
UACC-62 melanoma = tested on: UACC-62 melanoma
UO-31 renal = tested on: UO-31 renal
XF 498 CNS = tested on: XF 498 CNS
LXFL 529 NSCLC = tested on: LXFL 529 NSCLC
NCI-H522 lung = tested on: NCI-H522 lung
RXF 393 renal = tested on: RXF 393 renal
SN12C renal = tested on: SN12C renal
SR leukemia = tested on: SR leukemia
RXF-631 renal = tested on: RXF-631 renal

Measured: TGI

O=C1Cc2ccccc2N1/N=C\c1ccc([N+](=O)[O-])cc1
not listed: LXFL 529 NSCLC | NCI-H522 lung | RXF 393 renal | SN12C renal | SR leukemia | RXF-631 renal
> 100 µM: all other assays above

CCCCSC(=CC(=O)c1cccc(C(=O)C=C(SCCCC)SCCCC)n1)SCCCC
not listed: RXF-631 renal
> 100 µM: all other assays above

COc1cc(C(C)c2cc3c(cc2OCCN)OCO3)cc(OC)c1OC (centres undefined)
47 µM: HL-60(TB) leukemia
95.7 µM: RXF 393 renal
80.8 µM: KM20L2 colon
46.8 µM: SNB-75 CNS
not listed: HOP-18 NSCLC | HOP-92 NSCLC | SK-MEL-5 melanoma | SK-OV-3 ovarian | SNB-78 CNS | XF 498 CNS
> 100 µM: all other assays above

— PubChem BioAssay (NCI)
